# Measured values from patent US4474806A, “Sulfonyl or carbonyl inositol derivatives useful as anti-inflammatory/analgesic agents” (Merck & Co., Inc., priority 1982, dated 1984).
# Key:
# [1] = system: Phosphatidyl inositol-specific phospholipase C; assay: Phosphatidyl inositol-specific phospholipase C assay with sonicated human platelets, release of water-soluble 3H-inositol counts; format: biochemical; conditions: 250 μm PI, 10 minutes
# Protocol: This invention also relates to a method of treating inflammation in patients using a compound of Formula (I) as the active constituent.
# A. Protocol - Phosphatidyl inositol-specific
# phospholipase C assays. The assays were performed as
# follows: A mixture of PI (Sigma) and
# (^3 H--inositol)-PI in CHCl3 are blown to dryness
# under N2 and sonicated into a buffer containing DOC
# and CaCl2 so that the final concentrations in each
# 0.5 mg/ml DOC containing an appropriate amount of
# in 50 mM Hepes, 100 mM NaCl, 0.5 mg/ml BSA pH 7.
# An aliquot of sonicated human platelets,
# 5 × 10^9 /ml, is added; the reaction is stopped after
# 10 minutes with a chloroform/methanol/H2 O solution
# and the upper water phase is counted to detect
# water-soluble inositol counts. The pH was checked
# during each assay using pH paper to verify that none
# of the compounds affected this parameter.
# [2] = system: phospholipase C; conditions: background statement, no concentration given; cited from earlier work
smiles,measurement,setting,value
CCCCCCCCCCCCCCCC(=O)OC1C(O)C(O)C(O)C(O)C1O (stereo not shown) [myo-inositol-5 (or 6)-palmitate],% Inhibition (specific phospholipase C inhibition),[1]; Conc. 0.122 mM,7%
same,% Inhibition (specific phospholipase C inhibition),[1]; Conc. 1.22 mM,55%
CCCCCCCCCCCCNC(=O)OC1C(O)C(O)C(O)C(O)C1O (stereo not shown) [myo-inositol-6 (or 5)-dodecanecarbamate],% Inhibition (specific phospholipase C inhibition),[1]; Conc. 0.8 mM,16%
c1ccc2c(c1)Nc1ccccc1S2 [phenothiazine],inhibition of phospholipase C,[2],inhibited
